Experimental data: PubChem BioAssay (NCI)
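48-hour exposure; five concentrations; linearly interpolated endpoints. GI50 marks 50% less growth. Definition used: TGI = concentration required for complete inhibition of growth.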

Legend:
Assay in all cases: DTP human tumour cell line panel, 48 h
786-0 renal = system: 786-0 renal
A498 renal = system: A498 renal
A549 NSCLC = system: A549 NSCLC
ACHN renal = system: ACHN renal
BT-549 breast = system: BT-549 breast
CAKI-1 renal = system: CAKI-1 renal
CCRF-CEM leukemia = system: CCRF-CEM leukemia
COLO 205 colon = system: COLO 205 colon
DU-145 prostate = system: DU-145 prostate
EKVX NSCLC = system: EKVX NSCLC
HCC-2998 colon = system: HCC-2998 colon
HCT-116 colon = system: HCT-116 colon
HCT-15 colon = system: HCT-15 colon
HL-60(TB) leukemia = system: HL-60(TB) leukemia
HOP-62 NSCLC = system: HOP-62 NSCLC
HOP-92 NSCLC = system: HOP-92 NSCLC
HS 578T breast = system: HS 578T breast
HT29 colon = system: HT29 colon
IGROV1 ovarian = system: IGROV1 ovarian
K-562 leukemia = system: K-562 leukemia
KM12 colon = system: KM12 colon
LOX IMVI melanoma = system: LOX IMVI melanoma
M14 melanoma = system: M14 melanoma
MALME-3M melanoma = system: MALME-3M melanoma
MCF7 breast = system: MCF7 breast
MDA-MB-231 breast = system: MDA-MB-231 breast
MDA-MB-435 = system: MDA-MB-435
MOLT-4 leukemia = system: MOLT-4 leukemia
NCI-H226 lung = system: NCI-H226 lung
NCI-H23 lung = system: NCI-H23 lung
NCI-H460 lung = system: NCI-H460 lung
NCI-H522 lung = system: NCI-H522 lung
NCI/ADR-RES ovarian = system: NCI/ADR-RES ovarian
OVCAR-3 ovarian = system: OVCAR-3 ovarian
OVCAR-4 ovarian = system: OVCAR-4 ovarian
OVCAR-5 ovarian = system: OVCAR-5 ovarian
OVCAR-8 ovarian = system: OVCAR-8 ovarian
PC-3 prostate = system: PC-3 prostate
RPMI-8226 leukemia = system: RPMI-8226 leukemia
RXF 393 renal = system: RXF 393 renal
SF-268 CNS = system: SF-268 CNS
SF-295 CNS = system: SF-295 CNS
SF-539 CNS = system: SF-539 CNS
SK-MEL-2 melanoma = system: SK-MEL-2 melanoma
SK-MEL-28 melanoma = system: SK-MEL-28 melanoma
SK-MEL-5 melanoma = system: SK-MEL-5 melanoma
SK-OV-3 ovarian = system: SK-OV-3 ovarian
SN12C renal = system: SN12C renal
SNB-19 CNS = system: SNB-19 CNS
SNB-75 CNS = system: SNB-75 CNS
SR leukemia = system: SR leukemia
SW-620 colon = system: SW-620 colon
T-47D breast = system: T-47D breast
TK-10 renal = system: TK-10 renal
U251 CNS = system: U251 CNS
UACC-257 melanoma = system: UACC-257 melanoma
UACC-62 melanoma = system: UACC-62 melanoma
UO-31 renal = system: UO-31 renal

For `CCN(CC)c1ccc(/C=N/NC(=O)c2ccc(S(N)(=O)=O)cc2)c(O)c1`, the GI50 (786-0 renal) was 370 nM, the TGI (786-0 renal) was 8870 nM and the GI50 (A498 renal) was 982 nM. For the same molecule, the TGI (A498 renal) was 32700 nM, the GI50 (A549 NSCLC) was 1440 nM and the TGI (A549 NSCLC) was > 100000 nM. For the same molecule, the GI50 (ACHN renal) was 465 nM, the TGI (ACHN renal) was > 100000 nM and the GI50 (BT-549 breast) was 480 nM. The TGI (BT-549 breast) was 7730 nM, the GI50 (CAKI-1 renal) was 393 nM and the TGI (CAKI-1 renal) was 30900 nM. For the same molecule, the GI50 (CCRF-CEM leukemia) was 105 nM, the TGI (CCRF-CEM leukemia) was > 100000 nM and the GI50 (COLO 205 colon) was 296 nM. The TGI (COLO 205 colon) was 27000 nM, the GI50 (DU-145 prostate) was 540 nM and the TGI (DU-145 prostate) was > 79600 nM. The GI50 (EKVX NSCLC) was 397 nM, the TGI (EKVX NSCLC) was > 100000 nM and the GI50 (HCC-2998 colon) was 419 nM. The TGI (HCC-2998 colon) was > 80100 nM, the GI50 (HCT-116 colon) was 205 nM and the TGI (HCT-116 colon) was 56700 nM. For the same molecule, the GI50 (HCT-15 colon) was 318 nM, the TGI (HCT-15 colon) was > 100000 nM and the GI50 (HL-60(TB) leukemia) was 206 nM. It also gave a GI50 (HOP-62 NSCLC) of 226 nM, a TGI (HOP-62 NSCLC) of 7180 nM and a GI50 (HOP-92 NSCLC) of 216 nM. The TGI (HOP-92 NSCLC) was 13100 nM, the GI50 (HS 578T breast) was 2250 nM and the TGI (HS 578T breast) was > 68000 nM. For the same molecule, the GI50 (HT29 colon) was 485 nM, the TGI (HT29 colon) was > 54900 nM and the GI50 (IGROV1 ovarian) was 437 nM. For the same molecule, the TGI (IGROV1 ovarian) was > 100000 nM, the GI50 (K-562 leukemia) was 408 nM and the TGI (K-562 leukemia) was > 100000 nM. The GI50 (KM12 colon) was 579 nM, the TGI (KM12 colon) was > 100000 nM and the GI50 (LOX IMVI melanoma) was 187 nM. It also gave a TGI (LOX IMVI melanoma) of 3610 nM, a GI50 (M14 melanoma) of 351 nM and a TGI (M14 melanoma) of 7140 nM. The GI50 (MALME-3M melanoma) was 482 nM, the TGI (MALME-3M melanoma) was 9430 nM and the GI50 (MCF7 breast) was 399 nM. The TGI (MCF7 breast) was > 100000 nM, the GI50 (MDA-MB-231 breast) was 389 nM and the TGI (MDA-MB-231 breast) was 28600 nM. The GI50 (MDA-MB-435) was 659 nM, the TGI (MDA-MB-435) was > 100000 nM and the GI50 (MOLT-4 leukemia) was 322 nM. For the same molecule, the TGI (MOLT-4 leukemia) was > 100000 nM, the GI50 (NCI-H226 lung) was 821 nM and the TGI (NCI-H226 lung) was > 29600 nM. The GI50 (NCI-H23 lung) was 1110 nM, the TGI (NCI-H23 lung) was > 100000 nM and the GI50 (NCI-H460 lung) was 467 nM. For the same molecule, the TGI (NCI-H460 lung) was 6730 nM, the GI50 (NCI-H522 lung) was 310 nM and the TGI (NCI-H522 lung) was > 45300 nM. The GI50 (NCI/ADR-RES ovarian) was 1390 nM, the TGI (NCI/ADR-RES ovarian) was > 100000 nM and the GI50 (OVCAR-3 ovarian) was 137 nM. For the same molecule, the TGI (OVCAR-3 ovarian) was > 100000 nM, the GI50 (OVCAR-4 ovarian) was 304 nM and the TGI (OVCAR-4 ovarian) was > 85400 nM. The GI50 (OVCAR-5 ovarian) was 1640 nM, the TGI (OVCAR-5 ovarian) was > 84500 nM and the GI50 (OVCAR-8 ovarian) was 279 nM. For the same molecule, the TGI (OVCAR-8 ovarian) was > 49600 nM, the GI50 (PC-3 prostate) was 345 nM and the TGI (PC-3 prostate) was > 100000 nM. The GI50 (RPMI-8226 leukemia) was 3640 nM, the TGI (RPMI-8226 leukemia) was > 100000 nM and the GI50 (RXF 393 renal) was 541 nM. For the same molecule, the TGI (RXF 393 renal) was 8710 nM, the GI50 (SF-268 CNS) was 220 nM and the TGI (SF-268 CNS) was 17200 nM. The GI50 (SF-295 CNS) was 528 nM, the TGI (SF-295 CNS) was 20500 nM and the GI50 (SF-539 CNS) was 390 nM. For the same molecule, the TGI (SF-539 CNS) was 7870 nM, the GI50 (SK-MEL-2 melanoma) was 2250 nM and the TGI (SK-MEL-2 melanoma) was 53100 nM. For the same molecule, the GI50 (SK-MEL-28 melanoma) was 352 nM, the TGI (SK-MEL-28 melanoma) was > 64500 nM and the GI50 (SK-MEL-5 melanoma) was 537 nM. The TGI (SK-MEL-5 melanoma) was > 20300 nM, the GI50 (SK-OV-3 ovarian) was 394 nM and the TGI (SK-OV-3 ovarian) was 18400 nM. The GI50 (SN12C renal) was 638 nM, the TGI (SN12C renal) was > 64800 nM and the GI50 (SNB-19 CNS) was 669 nM. The TGI (SNB-19 CNS) was 29900 nM, the GI50 (SNB-75 CNS) was 351 nM and the GI50 (SR leukemia) was 63.1 nM. For the same molecule, the GI50 (SW-620 colon) was 429 nM, the TGI (SW-620 colon) was > 100000 nM and the GI50 (T-47D breast) was 2030 nM. The TGI (T-47D breast) was > 100000 nM, the GI50 (TK-10 renal) was 373 nM and the TGI (TK-10 renal) was 40100 nM. For the same molecule, the GI50 (U251 CNS) was 159 nM, the TGI (U251 CNS) was 16500 nM and the GI50 (UACC-257 melanoma) was 404 nM. For the same molecule, the TGI (UACC-257 melanoma) was 5330 nM, the GI50 (UACC-62 melanoma) was 346 nM and the TGI (UACC-62 melanoma) was 5140 nM. The GI50 (UO-31 renal) was 399 nM and the TGI (UO-31 renal) was > 100000 nM.
